Data on 4 molecules can be found in paper PMC10661964 (Current Drug Metabolism, 2023).

Read-outs that look alike come from different tables or passages of the source. Marks after values point to notes of the source that are not given here.

The Tmax is the time from dosing to the highest level.

Data set [1] in a line: Quantification of nifurtimox and metabolites in human urine (LC-HRMS). The class given is in vivo. The following applies: single oral 120 mg nifurtimox; for AE,urine(0–24h), fasted patients: mean of 6 fasted patients with Chagas disease; for AE,urine(0–24h), fed patients: mean of 6 fed patients with Chagas disease. As to the method:
Urine samples were collected from fasted and fed patients pre-dose (0 h) and at four post-dose intervals (0-4, 4-8, 8-12, and 12-24 h) and stored frozen until required. For analysis, urine samples were thawed at room temperature and homogenized by vortex mixing. […] Equal volumes (75 µL) of an internal standard solution of [^2H8]-nifurtimox dissolved in water (10 µg/mL) were added to each urine, calibration, or control sample and mixed thoroughly. Samples from 6 patients were then analyzed using liquid chromatography-high-resolution mass spectrometry (LC-HRMS) with a 1290 Infinity LC system equipped with a diode array detector and an Orbitrap Fusion™ Lumos™ Tribrid™ HRMS (Thermo Fisher Scientific, Bremen, Germany) with a heated electrospray ionization source. For quantification, the LC conditions were as described above for analysis of rat plasma, and the HRMS parameters were: mass range, 120-600 Da in full scan mode and all ion fragmentation in positive ionization mode; resolution, 240,000; ion source voltage, 3500 V; capillary temperature, 300°C; source temperature, 60°C.
The system was calibrated using the relative peak area as a function of concentration, which was obtained by linear regression. Quantification was performed on a mass basis (μg/mL), with the final calculation for the percentage of dose excreted in urine made on a molar basis to account for the substantial differences (up to ~2.5-fold) in the molecular masses of the compounds of interest. The analytical precision for all analytes was in the range of 1.1% to 4.4%, with an accuracy of 94% to 107%. All concentrations in μg/mL were back-calculated to nmol/mL, and these concentrations were then used to calculate a total molar amount based on the urine volume collected during each interval.

A short description of data set [2]: Quantification of nifurtimox and metabolites in rat plasma after a single high dose (200 mg/kg). The following applies: Wistar, rat, plasma, po, 200 mg/kg. The class given is in vivo, Wistar rats. As to the method: Blood cells and plasma were then separated by centrifugation, and the plasma was stored at ≤-15°C until required. For analysis, plasma samples were thawed at room temperature and homogenized by vortex mixing. Plasma samples were pooled separately for male and female rats by combining 25 µL from each of the 4 animals for each timepoint. […] To each pooled plasma (100 µL), calibration, or control sample, 300 µL of an internal standard solution containing [^2H8]-nifurtimox (500 ng/mL) and [^2H3]-M-6 (2500 ng/mL) in acetonitrile + 0.5% formic acid in water (v/v) was added and mixed thoroughly. All samples were then centrifuged (20,000 g, 5 min) to precipitate the protein. The supernatant was analyzed using a 1290 Infinity LC system equipped with a diode array detector and an Orbitrap Q-Exactive Plus HRMS (Thermo Fisher Scientific, Bremen, Germany) with a heated electrospray ionization source. […] The mobile phase gradient was: 0 min, 0% B; 2.5 min, 0% B; 3 min, 20% B; 8 min, 45% B; 9 min, 90% B; 10.1 min, 90% B; 12 min, 0% B; 13 min, 0% B. The following HRMS parameters were used: mass range, 120-200 Da (0-2.5 min) and 230-600 Da (2.5-13 min) in full scan mode; resolution, 280,000; ion source voltage, 3500 V; capillary temperature, 300°C; source temperature, 60°C.
The calibration was based on the relative peak area as a function of concentration obtained by linear regression. […] Thus, all concentrations in μg/mL were back-calculated to nmol/mL. The PK parameters for each analyte were calculated using ToxKin software, as described above.

The nature of data set [3]: Quantification of nifurtimox and metabolites in human plasma (LC-HRMS), plasma PK. The class given is in vivo. Particulars: fed; for AUC(tlast-∞) (extrapolated proportion): pooled plasma of 6 patients, single oral 120 mg nifurtimox; for AUC, % of total quantified exposure: sum of AUC of nifurtimox and M-1 to M-6 = 100%, single oral 120 mg. The procedure:
Plasma samples from timepoints 0, 0.25, 0.5, 0.75, 1, 1.5, 2, 2.5, 3, 4, 6, 8, 12, 15, and 24 h from 6 patients were analyzed. Blood samples were collected into lithium heparinized tubes. Blood cells and plasma were then separated by centrifugation, and the plasma was stored frozen until needed. For the analysis, plasma samples were thawed at room temperature and homogenized by vortex mixing. Equal volumes of plasma from the six patients for each timepoint were combined to a pooled volume of 200 µL. To precipitate protein, a 3-fold volume of acetonitrile/0.5% formic acid (v/v in water) was added to each pooled sample which was thoroughly mixed and then centrifuged at 20,000 g. […] For all analytes, the analytical precision ranged from 0.1% to 8.8%, and the accuracy was 95% to 108%.

The nature of data set [4]: Plasma PK of total radioactivity, [14C]-nifurtimox and metabolites after oral dosing (HPLC-LSC). Particulars: male Wistar rats; for %AUC(0-8) (relative to total radioactivity AUC(0-8)): oral 2.5 mg/kg, M-2+M-3, M-4, M-5 are estimates based on AUC(0-tn); for half-life / Tmax: rat; for half-life: plasma, interval up to 8 h, read-out: t½ (converted). The class given is in vivo. The procedure: (§1) Animals were housed in suitable metabolism cages. […] Blood cells and plasma were separated by centrifugation. Plasma was stored at ≤-15°C prior to analysis. […] All biological samples were weighed immediately. […] The remaining carcass was also wet-weighed.
Aliquots of individual plasma samples were pooled separately for each timepoint by equal volume. For protein precipitation, pooled plasma was treated with a three-fold volume of acetonitrile. Samples were homogenized and precipitated by centrifugation (20,000 g, 5 min). Samples were concentrated and analyzed using high-performance liquid chromatography (HPLC) with off-line radioactivity detection by LSC (HPLC-LSC).

Data set [5] is described as follows: Mass balance and metabolite profiling in excreta after oral [14C]-nifurtimox in intact rats. Particulars: intact male Wistar rats, 2.5 mg/kg oral, up to 120 h; 2.5 mg/kg.
Method: After an adaption period, the animals were prepared for the study. Bile duct cannulation was performed on selected animals the day before their use in experiments.
In a mass balance study (n = 5) and a PK study (n = 2 per timepoint), 2.5 mg/kg b.w. […] For i.v. administration, 2.5 mg/kg b.w. […] In an additional stability study, male Wistar rats (n = 3 per timepoint) were administered 2.5 mg/kg b.w. […] The total radioactivity concentration in the dosage form was confirmed by liquid scintillation counting (LSC).
Animals were housed in suitable metabolism cages. Blood was collected from separate rats at 0.25, 0.5, 1, 1.5, 2, 3, 5, and 8 h post-dose and stored in lithium heparinized tubes. Blood cells and plasma were separated by centrifugation. Plasma was stored at ≤-15°C prior to analysis. […] At the end of the study, the cages were rinsed with water, and samples were collected. All biological samples were weighed immediately. Feces samples were homogenized with water to obtain a uniform radioactivity distribution. All samples were stored deep-frozen at ≤-15/-70°C before further processing. During the necropsy, selected organs and tissues were collected and wet-weighed. The remaining carcass was also wet-weighed. The carcass and all tissues were homogenized and stored at room temperature prior to processing for analysis. In the stability study, blood and urine were collected at 0.25 and 0.5 h post-dose. Plasma and urine were immediately frozen in liquid nitrogen and stored at -80°C to prevent degradation. The total radioactivity in samples and tissues was determined by LSC after appropriate sample preparation.
Aliquots of individual urine or bile samples were pooled separately for each time interval by equal volume and analyzed using HPLC-LSC. Aliquots of individual feces samples were pooled separately for each time interval, ensuring that each aliquot contained the same amount of radioactivity. The pooled samples were extracted twice with a mixture of acetonitrile/water (80:20 v/v, 2 x 0.5 mL). The resulting suspensions were centrifuged (20,000 g, 5 min), and the supernatants were then combined for each time interval, concentrated, and subjected to HPLC-LSC.
The amount of total radioactivity in urine, feces, bile, and tissues was determined by multiplying the volume or weight of the samples by the respective total radioactivity concentration. The amount of radioactivity recovered in the excreta (AE), cage wash, and tissues was compared with the administered radioactive dose to establish the radioactive balance. Cumulative excretion was calculated as the sum of the excretion for each collection interval. Arithmetic means and coefficients of variation (CV) were calculated for these percentages. During metabolite profiling, the concentration or amount of each analyte for each sample and timepoint or interval was calculated by multiplying the total radioactivity concentration or amount excreted of each sample with the percent area of each analyte obtained after HPLC-LSC separation.
Data set [6] is described as follows: Stability study: metabolite profiles in snap-frozen plasma and urine at early timepoints after oral [14C]-nifurtimox. The class given is in vivo, male Wistar rats. The following applies: oral 2.5 mg/kg, snap-frozen. As to the method:
as §1
The combined supernatant was analyzed directly using HPLC-LSC.

[7] abbreviates: female, read-out: AUC(0–24), female animals.
[8] abbreviates: female, read-out: AUC, female animals.
Where [9] appears, read: female, read-out: Cmax, female animals.
The mark [10] stands for this setting: female, read-out: tmax, female animals.
Where [11] appears, read: female, read-out: t½, female animals (converted).
Where [12] appears, read: male, read-out: AUC(0–24), male animals.
[13] abbreviates: male, read-out: AUC, male animals.
Setting [14] is: male, read-out: Cmax, male animals.
The mark [15] stands for this setting: male, read-out: tmax, male animals.
Where [16] appears, read: male, read-out: t½, male animals (converted).
Where [17] appears, read: single oral 2.5 mg/kg [14C]-nifurtimox, pooled plasma.
The mark [18] stands for this setting: single oral 2.5 mg/kg [14C]-nifurtimox.

Consider `CC1CS(=O)(=O)CCN1/N=C/C(CCC(=O)O)=N\O` (stereo not drawn) [M-2], for which the “AE,urine(0–24h), fasted patients” value in data set [1] is recorded as 1.0 % of dose. Besides, in data set [1], the “AE,urine(0–24h), fed patients” value is 2.4 % of dose. Further, the AUC(0-t) in data set [2] (setting [7]) turned out to be 3.22 µM·h; in data set [2] (setting [12]), 3.31 µM·h. The AUC in data set [2] (setting [8]) was found to be 3.63 µM·h; in data set [2] (setting [13]) it was 13.4 µM·h. Also, the Cmax in data set [2] (setting [9]) worked out at 447 nM; in data set [2] (setting [14]), 220 nM. Further, the Tmax in data set [2] (setting [10]) and in data set [2] (setting [15]) was 2 h throughout. For the same molecule, the half-life in data set [2] (setting [11]) is 8.5 h; in data set [2] (setting [16]), 63.3 h. In data set [3], the “AUC(tlast-∞) (extrapolated proportion)” value was 7.8%. For the same molecule, in data set [3], the “AUC, % of total quantified exposure” value was determined as 1.4%.
`CC(=O)NC(CSc1ccc(=O)n(N2CCS(=O)(=O)CC2C)c1)C(=O)O` (stereo not drawn) [M-5]: the “AE,urine(0–24h), fasted patients” value in data set [1] is 3.4 % of dose. Moreover, the “AE,urine(0–24h), fed patients” value in data set [1] is 6.6 % of dose. In data set [4] (2.5 mg/kg), the “%AUC(0-8) (relative to total radioactivity AUC(0-8))” value is 2.30^c %. In addition, the AUC worked out at 177 µg-eq*h/L in data set [4] (setting [17]), 2.43 µM·h in data set [2] (setting [8]) and 8.02 µM·h in data set [2] (setting [13]). The “AUC(0-tn)” value in data set [4] (setting [17]) is 102 µg-eq*h/L. Further, the values for the Cmax in data set [4] (setting [17]), in data set [2] (setting [9]) and in data set [2] (setting [14]) were 32.1 µg-eq/L, 186 nM and 328 nM, respectively. In addition, the “tn (time of last quantifiable concentration)” value in data set [4] (setting [17]) turned out to be 5 h. Further, the results for the half-life in data set [4] (setting [18]), in data set [2] (setting [11]) and in data set [2] (setting [16]) were 3.76 h, 25.3 h and 8.2 h, respectively. Further, the Tmax in data set [4] (setting [17]) was 1.5 h; in data set [2] (setting [10]), 3 h; in data set [2] (setting [15]), 3 h. The values for the AUC(0-t) in data set [2] (setting [7]) and in data set [2] (setting [12]) were 1.42 µM·h and 4.64 µM·h, respectively. For the same molecule, the “AUC(tlast-∞) (extrapolated proportion)” value in data set [3] is on record as 11.7%. In addition, the “AUC, % of total quantified exposure” value in data set [3] turned out to be 0.5%.
As to `CC1CS(=O)(=O)CCN1/N=C/C(=O)CCC(=O)O` (stereo not drawn) [M-3], the “component excreted in feces, oral dosing” value in data set [5] is on record as 3.6 % of the administered dose. Also, in data set [1], the “AE,urine(0–24h), fasted patients” value is recorded as 0.06 % of dose. The “AE,urine(0–24h), fed patients” value in data set [1] is recorded as 0.15 % of dose. The AUC(0-t) in data set [2] (setting [7]) was determined as 3.54 µM·h; in data set [2] (setting [12]), 3.64 µM·h. For the same molecule, the values for the AUC in data set [2] (setting [8]) and in data set [2] (setting [13]) were 3.7 µM·h and 10.1 µM·h, respectively. The results for the Cmax in data set [2] (setting [9]) and in data set [2] (setting [14]) were 547 nM and 255 nM, respectively. Moreover, the Tmax in data set [2] (setting [10]) and in data set [2] (setting [15]) was 1 h throughout. The half-life in data set [2] (setting [11]) is 5.8 h; in data set [2] (setting [16]), 39.6 h. Moreover, the “AUC(tlast-∞) (extrapolated proportion)” value in data set [3] is given as 49.2%. For the same molecule, the “AUC, % of total quantified exposure” value in data set [3] is recorded as 1.2^a %.
As to `CC1CS(=O)(=O)CCN1/N=C/C(=O)CCC#N` (stereo not drawn) [M-1], the “share of sample radioactivity in plasma” value in data set [6] (0.25 h post-dose) is given as 1.4 % of sample radioactivity; in data set [6] (0.5 h post-dose), 2.3 % of sample radioactivity. Besides, the “component excreted in feces, oral dosing” value in data set [5] is 1.5 % of the administered dose. The “AE,urine(0–24h), fasted patients” value in data set [1] was 3.2 % of dose. For the same molecule, the “AE,urine(0–24h), fed patients” value in data set [1] is given as 2.0 % of dose. Besides, the “%AUC(0-8) (relative to total radioactivity AUC(0-8))” value in data set [4] is on record as 16.1%. Moreover, the AUC in data set [4] (setting [17]) was determined as 767 µg-eq*h/L; in data set [2] (setting [8]), 44.2 µM·h; in data set [2] (setting [13]), 46.6 µM·h. The “AUC(0-8)” value in data set [4] (setting [17]) was found to be 715 µg-eq*h/L. In addition, in data set [4] (setting [17]), the “AUC(0-tn)” value was determined as 715 µg-eq*h/L. For the same molecule, the figures for the Cmax in data set [4] (setting [17]), in data set [2] (setting [9]) and in data set [2] (setting [14]) were 138 µg-eq/L, 2050 nM and 1390 nM, respectively. For the same molecule, the “tn (time of last quantifiable concentration)” value in data set [4] (setting [17]) stood at 8 h. The half-life was 1.36 h in data set [4] (setting [18]), 4.6 h in data set [2] (setting [11]) and 4.2 h in data set [2] (setting [16]). In addition, the Tmax in data set [4] (setting [17]) came out at 3 h; in data set [2] (setting [10]), 8 h; in data set [2] (setting [15]), 24 h. Further, the AUC(0-t) was 36.7 µM·h in data set [2] (setting [7]) and 28.2 µM·h in data set [2] (setting [12]). Further, in data set [3], the “AUC(tlast-∞) (extrapolated proportion)” value is recorded as 7.6%. In data set [3], the “AUC, % of total quantified exposure” value is on record as 1.8%.
